Assays:
arthritis pain = conditions: cited from earlier work
[1] = tested on: patients with osteoporosis; assay: Zoledronic Acid alone or with prednisone (ZP), single infusion in osteoporosis patients: post-dosing syndrome; assay type: in vivo, human; conditions: four patients per arm
Protocol: Eight patients with osteoporosis were treated with a single infusion of Zoledronic Acid alone (four patients) or with a single infusion of the combination of prednisone and Zoledronic Acid (ZP, four patients).

[2] = tested on: subjects with osteoarthritis; assay: Joint pain (VAS scale) in the osteoarthritis subjects of the first study; assay type: in vivo, human; conditions: six months after the single infusion (one ZP subject up to one year); three ZP, two Zoledronic Acid subjects with osteoarthritis
Protocol: Of the 8 subjects, five had osteoarthritis. Of these five, three were treated with ZP and two with Zoledronic Acid.

[3] = tested on: subjects with knee osteoarthritis; assay: Single blind, single center study of intravenous ZP or ZA in knee osteoarthritis; assay type: in vivo, human
Protocol: In a further study, this one, a single blind, single center study, 20 subjects with knee osteoarthritis were randomized to either intravenous ZP or ZA in a 1:1 ratio. Subjects were followed for six months. Efficacy was measured by change in pain in 100 mm visual analogue score (VAS) from baseline (mean values). Patients were asked about the level of pain without taking rescue medications (NSAIDS or tramadol). Bone mineral density (BMD) was determined at baseline and six months to detect any effect on bone.

patients = conditions: Zometa Prescribing Information; cited from earlier work
[4] = in vivo; cited from earlier work

C[C@]12C=CC(=O)C=C1CC[C@@H]1[C@@H]2[C@@H](O)C[C@@]2(C)[C@H]1CC[C@]2(O)C(=O)CO [Prednisolone]
effect on arthritis pain (arthritis pain; IV, by itself): no effect on arthritis pain
duration of effect (arthritis pain; in vivo): transient, less than a day

O=P(O)(O)C(O)(Cn1ccnc1)P(=O)(O)O [Zoledronic Acid]
patients suffering from post-dosing syndrome (PDS) [1]: All four
change in joint pain (VAS scale) [2]: same (one) or worse (one) level of pain
ΔBMD ([3]; bone mineral density, baseline versus six months): 0
Δ Mean VAS ([3]; change in pain in 100 mm visual analogue score from baseline (mean values), six months follow-up, without rescue medications): −10 mm
PDS (# reporting/total) ([3]; intravenous, 10 subjects per cohort, knee osteoarthritis): 6/10
patients affected by post-dosing syndrome (PDS) (patients): ≤ 44%
half-life (t1/2α) [4]: about 0.24 hours

— patent US8859530B2, “Co-administration of steroids and zoledronic acid to prevent and treat osteoarthritis” (Voltarra Pharmaceuticals, Inc., priority 2013, dated 2014)
